Test results from paper PMC3158291 (Journal of medicinal chemistry, 2011).
In brackets after ≈: the same amount, converted by molar mass.

Assays:
[1] = system: Mycobacterium tuberculosis (Mtb), replicating; assay: Minimum Inhibitory Concentration; assay type: cell-based; conditions: for Mtb MIC99 μM (±SD): replicating (aerobic) Mtb, average ± SD of multiple measurements; for MIC99: Mycobacterium tuberculosis, read-out: Mtb MIC99 μM (±SD)
[2] = system: Mycobacterium tuberculosis (Mtb), non-replicating; assay: Minimum Anaerobicidal Concentration; assay type: cell-based; conditions: non-replicating (anaerobic) Mtb; average ± SD of multiple measurements
[3] = Stability in mouse liver microsomes; assay type: in vitro ADME; conditions: calculated from intrinsic clearance in mouse liver microsomes, method of ref 21
[4] = In vivo pharmacokinetic study, intravenous 5mg/kg; conditions: mice, intravenous injection at 5mg/kg

Compound | Predicted hepatic extraction ratio [3] [%] | also measured
2−((S)−2−Nitro−6,7−dihydro−5H−imidazo[2,1−b][1,3]oxazin−6−ylamino)−2−(4−trifluoromethoxyphenyl)−ethanol [Compound 17i] |  | Mtb MIC99 μM (±SD) [1]: 0.13 ± 0.04 µM; Mtb MAC μM (±SD) [2]: 23 ± 6 µM
CC(C)N(Cc1ccc(OC(F)(F)F)cc1)[C@@H]1COc2nc([N+](=O)[O-])cn2C1 [Compound 5c, (S)-N-Isopropyl-2-nitro-N-(4-trifluoromethoxybenzyl)-6,7-dihydro-5H-imidazo[2,1-b][1,3]oxazin-6-amine] | 95 | 
O=[N+]([O-])c1cn2c(n1)OC[C@@H](NCc1ccc(OC(F)(F)F)c(F)c1)C2 [Compound 56a, (S)-N-(3-Fluoro-4-trifluoromethoxybenzyl)-2-nitro-6,7-dihydro-5H-imidazo[2,1-b][1,3]oxazin-6-amine] | 72 | in vivo clearance [4]: low to moderate clearance; systemic exposure [4]: good systemic exposure
CN(Cc1ccc(OC(F)(F)F)cc1)[C@@H]1COc2nc([N+](=O)[O-])cn2C1 [Compound 5a, (S)-N-Methyl-2-nitro-N-4-trifluoromethoxybenzyl-6,7-dihydro-5H-imidazo[2,1-b][1,3]oxazin-6-amine] | 85 | 
CCC(=O)N(Cc1ccc(OC(F)(F)F)cc1)[C@@H]1COc2nc([N+](=O)[O-])cn2C1 [Compound 4b, (S)-N-(2-Nitro-6,7-dihydro-5H-imidazo[2,1-b][1,3]oxazin-6-yl)-N-(4-trifluoromethoxybenzyl)-propionamide] |  | Mtb MIC99 μM (±SD) [1]: Insoluble
O=[N+]([O-])c1cn2c(n1)OC[C@@H](NCc1ccc(OC(F)(F)F)cc1Oc1ccccc1)C2 [Compound 32d, (S)-2-Nitro-N-(2-phenoxy-4-trifluoromethoxybenzyl)-6,7-dihydro-5H-imidazo[2,1-b][1,3]oxazin-6-amine] | 90 | 
O=[N+]([O-])c1cn2c(n1)OC[C@@H](NCc1ccc(OC(F)(F)F)cc1F)C2 [Compound 41a, (S)-N-(2-Fluoro-4-(trifluoromethoxy)benzyl)-2-nitro-6,7-dihydro-5H-imidazo[2,1-b][1,3]oxazin-6-amine] | 81 | MIC99 [1]: 0.13 ± 0.06 µM (≈ 0.0489 µg/mL)
O=[N+]([O-])c1cn2c(n1)OC[C@@H](NCc1ccc(OC(F)(F)F)cc1O)C2 [Compound 32g, (S)-2-((2-Nitro-6,7-dihydro-5H-imidazo[2,1-b][1,3]oxazin-6-ylamino)methyl)-5-trifluoromethoxyphenol] | 81 | 
O=[N+]([O-])c1cn2c(n1)OC[C@@H](NCc1ccc(OC(F)(F)F)cc1OCC1CC1)C2 [Compound 32e, (S)-N-(2-Cyclopropylmethoxy-4-trifluoromethoxybenzyl)-2-nitro-6,7-dihydro-5H-imidazo[2,1-b][1,3]oxazin-6-amine] | 97 | 
CCCN(Cc1ccc(OC(F)(F)F)cc1)[C@@H]1COc2nc([N+](=O)[O-])cn2C1 [Compound 5b, (S)-2-Nitro-N-propyl-N-(4-trifluoromethoxybenzyl)-6,7-dihydro-5H-imidazo[2,1-b][1,3]oxazin-6-amine] | 95 | 
O=[N+]([O-])c1cn2c(n1)OC[C@@H](NCc1ccc(OC(F)(F)F)c(O)c1)C2 [Compound 56i, (S)-5-((2-Nitro-6,7-dihydro-5H-imidazo[2,1-b][1,3]oxazin-6-ylamino)methyl)-2-(trifluoromethoxy)-phenol] |  | in vivo clearance [4]: cleared more rapidly; systemic exposure [4]: low systemic exposure
O=[N+]([O-])c1cn2c(n1)OC[C@@H](NCc1ccc(OC(F)(F)F)cc1OC1CC1)C2 [Compound 32f, (S)-N-(2-Cyclopropoxy-4-trifluoromethoxybenzyl)-2-nitro-6,7-dihydro-5H-imidazo[2,1-b][1,3]oxazin-6-amine] | 87 | 
O=[N+]([O-])c1cn2c(n1)OC[C@@H](NCc1ccc(OC(F)(F)F)c(Oc3ccccc3)c1)C2 [Compound 56e, (S)-2-Nitro-N-(3-phenoxy-4-(trifluoromethoxy)benzyl)-6,7-dihydro-5H-imidazo[2,1-b][1,3]oxazin-6-amine] | 87 | 
O=[N+]([O-])c1cn2c(n1)OC[C@@H](NCc1ccc(OC(F)(F)F)c(Cl)c1)C2 [Compound 56b, (S)-N-(3-Chloro-4-trifluoromethoxybenzyl)-2-nitro-6,7-dihydro-5H-imidazo[2,1-b][1,3]oxazin-6-amine] |  | in vivo clearance [4]: low to moderate clearance; systemic exposure [4]: good systemic exposure
O=[N+]([O-])c1cn2c(n1)OC[C@@H](NCc1ccc(OC(F)(F)F)cc1Cl)C2 [Compound 41b, (S)-N-(2-Chloro-4-trifluoromethoxybenzyl)-2-nitro-6,7-dihydro-5H-imidazo[2,1-b][1,3]oxazin-6-amine] | 75 | MIC99 [1]: 0.12 ± 0.05 µM (≈ 0.0471 µg/mL)
